From EP0363255A1, “Analogues of 4-desoxydaunosamine, process for their preparation, anthracycline derivatives of these analogues and use of these anthracyclines as medicaments” (LABORATOIRES HOECHST S.A., priority 1988, dated 1990)

Assays:
[1] = animal models, compared with 2a and 2b; cited from earlier work
[2] = tested on: sarcome S 180; conditions: mouse, sarcome S 180, compared with daunorubicine 2a / doxorubicine 2b; cited from earlier work
[3] = tested on: leucémie P 388; conditions: mouse, leucémie P 388, compared with daunorubicine 2a / doxorubicine 2b; cited from earlier work
[4] = tested on: leucémie L1210; conditions: mouse, leucémie L1210, compared with daunorubicine 2a / doxorubicine 2b; cited from earlier work
[5] = tested on: cellules tumorales HT 29; assay: Test de prolifération (réduction MTT), HT 29; format: cell-based; conditions: HT 29, MTT test, 72 h incubation
Description: (§1) Des cellules tumorales L 1210, A 549 et HT 29 en croissance exponentielle, à une densité de 5.10³/ml dans un milieu RPMI, sont incubées dans des plaques de microtitration contenant 96 puits, pendant 72 heures (37°C, 5 % CO₂, 95 % d'humidité relative) avec diffé-rentes concentrations de chacun des glycosides conformes à l'invention.
(§2) Les témoins consistent en cellules tumorales dans un milieu de culture frais.
(§3) Quatre puits sont préparés pour chaque concentration de glycoside et pour le témoin.
(§4) Après 65 heures, 50 µl de MTT (2,5 mg/ml dans du PBS) sont ajoutés.
(§5) Le MTT sera réduit, en présence de cellules vivantes, en un colorant formazan rouge insoluble.
(§6) Après 7 à 24 heures d'incubation supplémentaire, le surnageant est enlevé.
(§7) Le colorant formazan est solubilisé par l'addition de 100 µl de DMSO dans chaque puits, suivie d'une agitation douce. L'extinction est mesurée pour chaque puits, à 492 nm (photomètre Multiscan 340 cc, Fa. Flow).
(§8) Les résultats sont exprimés sous forme de relation de l'extinction après incubation avec les glycosides par rapport à l'extinction obtenue avec les té-moins. Le coefficient de variation est inférieur à 15 %. Les résultats sont représentés dans le tableau I, ci-après : […]

[6] = tested on: cellules tumorales A 549; assay: Test de prolifération (réduction MTT), A 549; format: cell-based; conditions: A 549, MTT test, 72 h incubation
Description: as §1, §2, §3, §4, §5, §6, §7, §8

[7] = tested on: cellules tumorales L 1210; assay: Test de prolifération (réduction MTT), L1210; format: cell-based; conditions: 72 h incubation
Description: as §1, §2, §3, §4, §5, §6, §7, §8

In the case of COc1cccc2c1C(=O)c1c(O)c3c(c(O)c1C2=O)C[C@@](O)(C(C)=O)C[C@@H]3O[C@H]1C[C@H](N)C[C@H](C)O1 [compound 3], the cardiotoxicité [1] is listed as “moins cardiotoxiques”, the activité in vivo [2] is listed as “aussi actifs” and the activité in vivo [3] is listed as “aussi actifs”. The activité in vivo [4] was “aussi actifs”.
In the case of COc1cccc2c1C(=O)c1c(O)c3c(c(O)c1C2=O)C[C@@](O)(C(=O)CO)C[C@@H]3O[C@H]1C[C@H](N)C[C@H](C)O1 [compound 4], the cardiotoxicité [1] is listed as “moins cardiotoxiques”, the activité in vivo [2] is listed as “aussi actifs” and the activité in vivo [3] is listed as “aussi actifs”. The activité in vivo [4] was “aussi actifs”.
For CC[C@@]1(O)C[C@H](O[C@H]2C[C@H](CNC(=O)C(F)(F)F)C[C@H](C)O2)c2c(O)c3c(c(O)c2[C@H]1O)C(=O)c1cccc(O)c1C3=O [16a, O-(N-TRIFLUOROACETYL AMINOMETHYL-3′ TETRADESOXY-2′,3′, 4′,6′-α-L-LYXO-HEXOPYRANOSYL)-7 β-RHODOMYCINONE], the IC₅₀ [5] was 0,48 µg/ml, the IC₅₀ [6] was 0,14 µg/ml and the IC₅₀ [7] was 0,14 µg/ml.
With COc1cccc2c1C(=O)c1c(O)c3c(c(O)c1C2=O)C[C@@](O)(C(C)=O)C[C@@H]3O[C@H]1C[C@H](CNC(=O)C(F)(F)F)C[C@H](C)O1 [15a, O-(N-TRIFLUOROACETYL AMINOMETHYL-3′ TETRADESOXY-2′, 3′, 4′,6′-α-L-LYXO-HEXOPYRANOSYL)-7 DAUNOMYCINONE] the IC₅₀ [5] was 0,67 µg/ml, the IC₅₀ [6] was 0,43 µg/ml and the IC₅₀ [7] was 0,25 µg/ml.
